In patent US20260216170A1, “TETRAHYDROISOQUINOLINE HETEROBIFUNCTIONAL BCL-XL DEGRADERS” (Treeline Biosciences, Inc., priority 2023, published 2026):

Target: T1, Human BCL-XL protein (N-terminal HiBiT tagged BCL-XL expressed in HT1080 cells) (Homo sapiens, UniProt Q07817)
T1 construct: expressed in transfected cells; host or cells: HT-1080 (ATCC CCL-121), stably transduced with lentivirus pLV-UBC-N-HiBiT-BCL-XL-PGK-puro and selected with puromycin
Test: HiBiT Based Degradation Assay
Assay type: cell-based
Conditions: 24 hours incubation; for DC50: BCL-XL degradation, HT1080 cells expressing N-HiBiT-BCL-XL, normalized with DMSO control, geometric mean for multiple data points, read-out: EC50 (24 h); for Ymin (24 h): bottom of BCL-XL degradation curve (remaining HiBiT-BCL-XL signal vs DMSO control), HT1080 cells
Source text: HiBiT Based Degradation Assay
Human BCL-XL protein coding open reading frame fused with N-terminal HiBiT coding sequence (N-HiBiT-BCL-XL) was synthesized from Integrated DNA Technologies (IDT). Next, N-HiBiT-BCL-XL sequence was cloned into pLV-UBC-PGK-Puro, a lentivirus plasmid purchased from Vectorbuilder, to generate pLV-UBC-N-HiBiT-BCL-XL-PGK-puro. Lentiviral particles were generated from Lenti-X™ 293T cells (Clontech) by co-transfection of pLV-UBC-N-HiBiT-BCL-XL-PGK-puro plasmids and lentiviral packaging plasmid mix (Cellecta). HT-1080 [HT1080](ATCC CCL-121™) cells were infected with the lentivirus, and HT1080 cells stably integrated with the lentiviral vector were established by incubation with 1 μg/mL puromycin (Thermofisher). HT1080 cells expressing N-terminal HiBiT tagged BCL-XL were dispensed into 384-well plates pre-spotted with compounds at varying concentrations. Three thousand cells were seeded into each well in 40 μL of RPMI 1640 media. After 24 hours of incubation at 37° C. with 5% CO2, 30 μL of the NANO-GLO® HiBiT Lytic Detection System working solution (Promega) was added to each well and incubated at room temperature for 30 min. After incubation, luminescence was read on a PHERAstar FSX Plate Reader (BMG). BCL-XL degradation at each indicated concentration was normalized with DMSO control. The BCL-XL degradation curves were plotted using a four-parameter logistic model. For compounds displaying hook effects, curve fitting was performed using bottom point of hook curves (i.e., the point of Ymin) as bottom plateau to calculate EC50. For compounds with multiple data points, the geometric mean is presented.

T1 sequence (Q07817 whole entry): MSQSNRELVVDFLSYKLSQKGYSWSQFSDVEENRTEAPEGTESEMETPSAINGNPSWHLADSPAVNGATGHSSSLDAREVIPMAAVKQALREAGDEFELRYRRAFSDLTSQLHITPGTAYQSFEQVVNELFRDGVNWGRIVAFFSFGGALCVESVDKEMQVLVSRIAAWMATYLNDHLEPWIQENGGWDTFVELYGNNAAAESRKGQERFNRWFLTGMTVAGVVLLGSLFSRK

DC50 [nM]	Ymin (24 h)	Compound
10 to 100	B (30% ≤ Ymin < 50%)	COc1c(NC(=O)CN2CCC3(CC2)CC(COc2ccc(-c4ccc(N5CCc6ccnc(C(=O)Nc7nc8ccccc8s7)c6C5)nc4C(=O)O)c(C(F)(F)F)c2)C3)ccc2c(C3CCC(=O)NC3=O)nn(C)c12 (centres unmarked) [Compound 181, 6-[8-(1,3-benzothiazol-2-ylcarbamoyl)-3,4-dihydro-1H-2,7-naphthyridin-2-yl]-3-[4-[[7-[2-[[3-(2,6-dioxo-3-piperidyl)-7-methoxy-1-methyl-indazol-6-yl]amino]-2-oxo-ethyl]-7-azaspiro[3.5]nonan-2-yl]methoxy]-2-(trifluoromethyl)phenyl]pyridine-2-carboxylic acid]
< 10	B (30% ≤ Ymin < 50%)	Cn1nc(C2CCC(=O)NC2=O)c2ccc(NC(=O)CN3CCC4(CC3)CC(COc3ccc(-c5ccc(N6CCc7ccnc(C(=O)Nc8nc9ccccc9s8)c7C6)nc5C(=O)O)c(C(F)(F)F)c3)C4)cc21 (centres unmarked) [Compound 160, 6-[8-(1,3-benzothiazol-2-ylcarbamoyl)-3,4-dihydro-1H-2,7-naphthyridin-2-yl]-3-[4-[[7-[2-[[3-(2,6-dioxo-3-piperidyl)-1-methyl-indazol-6-yl]amino]-2-oxo-ethyl]-7-azaspiro[3.5]nonan-2-yl]methoxy]-2-(trifluoromethyl)phenyl]pyridine-2-carboxylic acid]
10 to 100	A (Ymin < 30%)	C[C@H]1C[C@@H](CCCOc2ccc(-c3ccc(N4CCc5cccc(C(=O)Nc6nc7ccccc7s6)c5C4)nc3C(=O)O)c(C(F)(F)F)c2)CCN1CC(=O)Nc1ccc2c(C3CCC(=O)NC3=O)nn(C)c2c1 (stereo partly drawn) [Compound 209a, 6-(8-(benzo[d]thiazol-2-ylcarbamoyl)-3,4-dihydroisoquinolin-2(1H)-yl)-3-(4-(3-((2S,4S)-1-(2-((3-(2,6-dioxopiperidin-3-yl)-1-methyl-1H-indazol-6-yl)amino)-2-oxoethyl)-2-methylpiperidin-4-yl)propoxy)-2-(trifluoromethyl)phenyl)picolinic acid]
< 10	A (Ymin < 30%)	Cn1nc(C2CCC(=O)NC2=O)c2ccc(NC(=O)CN3CCC4(CC3)CC(Oc3ccc(-c5ccc(N6CCc7cccc(C(=O)Nc8nc9ccccc9s8)c7C6)nc5C(=O)O)c(C(F)(F)F)c3)C4)cc21 (centres unmarked) [Compound 155, 6-(8-(benzo[d]thiazol-2-ylcarbamoyl)-3,4-dihydroisoquinolin-2(1H)-yl)-3-(4-((7-(2-((3-(2,6-dioxopiperidin-3-yl)-1-methyl-1H-indazol-6-yl)amino)-2-oxoethyl)-7-azaspiro[3.5]nonan-2-yl)oxy)-2-(trifluoromethyl)phenyl)picolinic acid]
10 to 100	C (50% ≤ Ymin < 70%)	Cc1cc(OCCCC2CCN(Cc3nc4ccc(C5CCC(=O)NC5=O)cc4[nH]3)CC2)ccc1-c1ccc(N2CCc3cccc(C(=O)Nc4nc5ccccc5s4)c3C2)nc1C(=O)O (centres unmarked) [Compound 2003]
10 to 100	B (30% ≤ Ymin < 50%)	Cc1c(OC[C@@H]2C[C@H]2C2CCN(CC(=O)Nc3ccc4c(C5CCC(=O)NC5=O)nn(C)c4c3)CC2)cccc1-c1ccc(N2CCc3cccc(C(=O)Nc4nc5ccccc5s4)c3C2)nc1C(=O)O (single isomer, unassigned) [Compound 1001a]
< 10	A (Ymin < 30%)	Cc1cc(OC[C@H](C)CC2CCN(CC(=O)Nc3ccc4c(C5CCC(=O)NC5=O)nn(C)c4c3)CC2)ccc1-c1ccc(N2CCc3ccnc(C(=O)Nc4nc5ccccc5s4)c3C2)nc1C(=O)O (single isomer, unassigned) [Compound 140a]
< 10	B (30% ≤ Ymin < 50%)	Cn1nc(C2CCC(=O)NC2=O)c2ccc(NC(=O)CN3CCC4(CC3)CC(Oc3cccc(-c5ccc(N6CCc7ccnc(C(=O)Nc8nc9ccccc9s8)c7C6)nc5C(=O)O)c3C(F)(F)F)C4)nc21 (centres unmarked) [Compound 202, 6-(8-(benzo[d]thiazol-2-ylcarbamoyl)-3,4-dihydro-2,7-naphthyridin-2(1H)-yl)-3-(3-((7-(2-((3-(2,6-dioxopiperidin-3-yl)-1-methyl-1H-pyrazolo[3,4-b]pyridin-6-yl)amino)-2-oxoethyl)-7-azaspiro[3.5]nonan-2-yl)oxy)-2-(trifluoromethyl)phenyl)picolinic acid]

Second part, the compound before the results:

Compound	DC50 [nM]	Ymin (24 h)
Cc1c(OC2CCC3(CC2)CCN(CC(=O)Nc2ccc4c(C5CCC(=O)NC5=O)nn(C)c4c2)CC3)cccc1-c1ccc(N2CCc3cccc(C(=O)Nc4nc5ccccc5s4)c3C2)nc1C(=O)O (centres unmarked) [Compound 119]	< 10	B (30% ≤ Ymin < 50%)
Cc1c(OCC2CC3(CCN(CC(=O)Nc4ccc5c(C6CCC(=O)NC6=O)nn(C)c5c4C(F)(F)F)CC3)C2)cccc1-c1ccc(N2CCc3cccc(C(=O)Nc4nc5ccccc5s4)c3C2)nc1C(=O)O (centres unmarked) [Compound 137]	10 to 100	C (50% ≤ Ymin < 70%)
Cn1nc(C2CCC(=O)NC2=O)c2ccc(NC(=O)CN3CCC(CCCOc4cccc(-c5ccc(N6CCc7ccnc(C(=O)Nc8nc9ccccc9s8)c7C6)nc5C(=O)O)c4C(F)(F)F)CC3)cc21 (centres unmarked) [Compound 159, 6-[8-(1,3-benzothiazol-2-ylcarbamoyl)-3,4-dihydro-1H-2,7-naphthyridin-2-yl]-3-[3-[3-[1-[2-[[3-(2,6-dioxo-3-piperidyl)-1-methyl-indazol-6-yl]amino]-2-oxo-ethyl]-4-piperidyl]propoxy]-2-(trifluoromethyl)phenyl]pyridine-2-carboxylic acid]	10 to 100	B (30% ≤ Ymin < 50%)
COc1c(NC(=O)CN2CCC3(CC2)CC(Oc2cccc(-c4ccc(N5CCc6ccnc(C(=O)Nc7nc8ccccc8s7)c6C5)nc4C(=O)O)c2C(F)(F)F)C3)ccc2c(C3CCC(=O)NC3=O)nn(C)c12 (centres unmarked) [Compound 165, 6-(8-(benzo[d]thiazol-2-ylcarbamoyl)-3,4-dihydro-2,7-naphthyridin-2(1H)-yl)-3-(3-((7-(2-((3-(2,6-dioxopiperidin-3-yl)-7-methoxy-1-methyl-1H-indazol-6-yl)amino)-2-oxoethyl)-7-azaspiro[3.5]nonan-2-yl)oxy)-2-(trifluoromethyl)phenyl)picolinic acid]	< 10	B (30% ≤ Ymin < 50%)
Cc1cc(OC2CC3(CCN(CC(=O)Nc4ccc5c(C6CCC(=O)NC6=O)nn(C)c5n4)CC3)C2)ccc1-c1ccc(N2CCc3cccc(C(=O)Nc4nc5ccccc5s4)c3C2)nc1C(=O)O (centres unmarked) [Compound 195]	< 10	B (30% ≤ Ymin < 50%)
Cc1cc(OCCC[C@H]2CCN(CC(=O)Nc3ccc4c(C5CCC(=O)NC5=O)nn(C)c4c3)[C@@H](C)C2)ccc1-c1ccc(N2CCc3ccnc(C(=O)Nc4nc5ccccc5s4)c3C2)nc1C(=O)O (stereo partly drawn) [Compound 219b, 6-(8-(benzo[d]thiazol-2-ylcarbamoyl)-3,4-dihydro-2,7-naphthyridin-2(1H)-yl)-3-(4-(3-((2S,4S)-1-(2-((3-(2,6-dioxopiperidin-3-yl)-1-methyl-1H-indazol-6-yl)amino)-2-oxoethyl)-2-methylpiperidin-4-yl)propoxy)-2-methylphenyl)picolinic acid]	< 10	A (Ymin < 30%)
Cn1nc(C2CCC(=O)NC2=O)c2ccc(NC(=O)CN3CCC(CCCOc4ccc(-c5ccc(N6CCc7cccc(C(=O)Nc8nc9ccccc9s8)c7C6)nc5C(=O)O)c(C(F)(F)F)c4)CC3)nc21 (centres unmarked) [Compound 146]	10 to 100	B (30% ≤ Ymin < 50%)
Cc1c(-c2ccc(N3CCc4cccc(C(=O)Nc5nc6ccccc6s5)c4C3)nc2C(=O)O)cccc1N(C)CCCC1CCN(CC(=O)Nc2ccc3c(C4CCC(=O)NC4=O)nn(C)c3c2)CC1 (centres unmarked) [Compound 220]	10 to 100	C (50% ≤ Ymin < 70%)
Cc1c(NCCCC2CCN(CC(=O)Nc3ccc4c(C5CCC(=O)NC5=O)nn(C)c4c3)CC2)cccc1-c1ccc(N2CCc3cccc(C(=O)Nc4nc5ccccc5s4)c3C2)nc1C(=O)O (centres unmarked) [Compound 217]	< 10	B (30% ≤ Ymin < 50%)
Cc1cc(O[C@H](C)CCC2CCN(CC(=O)Nc3ccc4c(C5CCC(=O)NC5=O)nn(C)c4c3F)CC2)ccc1-c1ccc(N2CCc3cccc(C(=O)Nc4nc5ccccc5s4)c3C2)nc1C(=O)O (single isomer, unassigned) [Compound 224b]	10 to 100	A (Ymin < 30%)
COc1c(NC(=O)CN2CCC3(CC2)CC(Oc2ccc(-c4ccc(N5CCc6cccc(C(=O)Nc7nc8ccccc8s7)c6C5)nc4C(=O)O)c(C)c2)C3)ccc2c(C3CCC(=O)NC3=O)nn(C)c12 (centres unmarked) [Compound 170, 6-(8-(benzo[d]thiazol-2-ylcarbamoyl)-3,4-dihydroisoquinolin-2(1H)-yl)-3-(4-((7-(2-((3-(2,6-dioxopiperidin-3-yl)-7-methoxy-1-methyl-1H-indazol-6-yl)amino)-2-oxoethyl)-7-azaspiro[3.5]nonan-2-yl)oxy)-2-methylphenyl)picolinic acid]	< 10	A (Ymin < 30%)
